From ChEMBL document CHEMBL1777794, “Optimization of the physicochemical and pharmacokinetic attributes in a 6-azauracil series of P2X7 receptor antagonists leading to the discovery of the clinical candidate CE-224,535” (Bioorg Med Chem Lett, 2011)
The source made the active and inactive calls. The rule behind the calls is not given here.

Assays:
P2X purinoceptor 7 [1] = target: T1, P2X purinoceptor 7 (Homo sapiens, UniProt Q99572); experiment: Antagonist activity at P2X7 receptor in human LPS-stimulated monocytes assessed as inhibition of ATP-induced IL1-beta release by ELISA; format: functional, cell-based
T1 sequence (Q99572 whole entry): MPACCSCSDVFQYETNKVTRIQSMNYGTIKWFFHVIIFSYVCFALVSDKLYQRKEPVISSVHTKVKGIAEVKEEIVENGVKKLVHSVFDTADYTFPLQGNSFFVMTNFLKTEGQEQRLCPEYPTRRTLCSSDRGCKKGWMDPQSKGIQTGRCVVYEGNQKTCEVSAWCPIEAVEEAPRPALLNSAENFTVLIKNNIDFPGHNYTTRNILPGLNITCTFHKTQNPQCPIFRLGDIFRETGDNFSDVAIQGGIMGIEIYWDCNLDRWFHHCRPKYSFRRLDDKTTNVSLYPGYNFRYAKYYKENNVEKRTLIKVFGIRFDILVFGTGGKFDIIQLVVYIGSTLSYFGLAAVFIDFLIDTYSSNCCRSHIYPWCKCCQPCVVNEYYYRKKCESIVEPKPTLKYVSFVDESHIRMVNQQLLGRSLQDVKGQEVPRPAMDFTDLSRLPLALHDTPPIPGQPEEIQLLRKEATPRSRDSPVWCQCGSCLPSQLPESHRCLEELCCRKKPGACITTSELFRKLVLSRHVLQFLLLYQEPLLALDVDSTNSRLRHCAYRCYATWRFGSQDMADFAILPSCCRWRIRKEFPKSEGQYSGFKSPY

[2] = target: T2, P2X purinoceptor 7 (Homo sapiens) (UniProt Q99572); experiment: Antagonist activity at P2X7 receptor in human LPS-stimulated monocytes assessed as inhibition of ATP-induced IL1-beta release at 5 uM by ELISA; format: functional, cell-based
T2 sequence (whole entry): T1 sequence (Q99572 whole entry)

[3] = target: T2, P2X purinoceptor 7 (Homo sapiens); experiment: Antagonist activity at P2X7 receptor in human monocytes assessed as inhibition of LPS/ATP-induced IL1-beta release at 1 uM by ELISA; format: functional, cell-based
[4] = Fraction unbound in human plasma; format: ADME, cell-free
[5] = Volume of distribution at steady state in dog; format: ADME, organism-based, Canis lupus familiaris; conditions: in vivo, read-out: Vdss
[6] = target: T3, P2X purinoceptor 7 (Mus musculus) (UniProt Q9Z1M0); experiment: Antagonist activity at P2X7 receptor in mouse LPS-stimulated peritoneal macrophages assessed as inhibition of ATP-induced IL1-beta release at 10 uM by ELISA; format: functional
T3 sequence (whole entry): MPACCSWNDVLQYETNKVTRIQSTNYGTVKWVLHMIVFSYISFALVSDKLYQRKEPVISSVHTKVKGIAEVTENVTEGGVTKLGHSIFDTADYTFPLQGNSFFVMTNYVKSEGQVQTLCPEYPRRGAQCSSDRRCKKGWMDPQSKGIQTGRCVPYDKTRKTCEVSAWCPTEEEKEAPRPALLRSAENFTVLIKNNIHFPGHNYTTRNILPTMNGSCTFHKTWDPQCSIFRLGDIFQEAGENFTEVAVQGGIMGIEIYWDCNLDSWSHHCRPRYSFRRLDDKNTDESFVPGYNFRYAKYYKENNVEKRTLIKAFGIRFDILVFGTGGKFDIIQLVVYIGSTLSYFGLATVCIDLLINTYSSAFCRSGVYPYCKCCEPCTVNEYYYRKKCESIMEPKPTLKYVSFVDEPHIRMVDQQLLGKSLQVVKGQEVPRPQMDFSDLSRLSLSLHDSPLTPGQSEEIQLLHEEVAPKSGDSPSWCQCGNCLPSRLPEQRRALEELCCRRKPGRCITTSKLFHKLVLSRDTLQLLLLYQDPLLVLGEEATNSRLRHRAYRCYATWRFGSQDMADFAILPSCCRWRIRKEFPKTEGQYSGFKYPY

Cytochrome P450 2D6 = Cytochrome P450 2D6 (Homo sapiens, UniProt P10635); experiment: Inhibition of human CYP2D6; format: ADME
Chain of Cytochrome P450 2D6 (P10635 whole entry): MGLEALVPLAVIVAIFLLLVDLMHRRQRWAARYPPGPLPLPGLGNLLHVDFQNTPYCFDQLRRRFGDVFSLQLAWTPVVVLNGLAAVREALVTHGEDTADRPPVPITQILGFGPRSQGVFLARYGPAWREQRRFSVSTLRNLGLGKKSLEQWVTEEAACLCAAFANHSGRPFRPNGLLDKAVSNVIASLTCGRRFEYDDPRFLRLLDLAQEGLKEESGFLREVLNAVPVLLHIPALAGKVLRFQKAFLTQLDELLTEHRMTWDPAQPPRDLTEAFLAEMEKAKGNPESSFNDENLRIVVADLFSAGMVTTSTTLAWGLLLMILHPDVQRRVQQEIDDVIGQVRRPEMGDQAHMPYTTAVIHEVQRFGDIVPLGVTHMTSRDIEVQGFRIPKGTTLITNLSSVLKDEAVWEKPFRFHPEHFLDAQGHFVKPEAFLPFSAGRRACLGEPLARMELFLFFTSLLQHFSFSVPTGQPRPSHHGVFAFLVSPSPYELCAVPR

Cytochrome P450 2C19 = Cytochrome P450 2C19 (Homo sapiens, UniProt P33261); experiment: Inhibition of human CYP2C19; format: ADME
Chain of Cytochrome P450 2C19 (P33261 whole entry): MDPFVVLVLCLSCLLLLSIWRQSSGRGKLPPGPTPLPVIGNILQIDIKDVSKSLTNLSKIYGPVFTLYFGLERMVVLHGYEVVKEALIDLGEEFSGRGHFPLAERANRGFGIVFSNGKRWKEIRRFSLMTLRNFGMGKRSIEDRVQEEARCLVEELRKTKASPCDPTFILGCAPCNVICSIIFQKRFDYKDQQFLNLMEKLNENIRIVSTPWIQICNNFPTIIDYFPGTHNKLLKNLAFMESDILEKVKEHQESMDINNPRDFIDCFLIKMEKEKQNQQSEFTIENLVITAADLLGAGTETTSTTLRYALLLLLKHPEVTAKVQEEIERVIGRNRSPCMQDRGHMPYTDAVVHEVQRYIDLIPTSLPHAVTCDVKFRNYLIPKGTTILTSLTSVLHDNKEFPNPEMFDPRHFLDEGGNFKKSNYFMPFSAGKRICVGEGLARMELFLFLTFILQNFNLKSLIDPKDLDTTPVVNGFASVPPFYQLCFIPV

[7] = Trough plasma concentration in rheumatoid arthritis patient at 500 mg BID for 12 weeks; format: ADME; conditions: human, read-out: Cmin
Rattus norvegicus = experiment: Toxicity in rat at 500 mg/kg, po qd for 4 days; format: organism-based; parameters: dose 500 mg/kg, route oral; conditions: in vivo, 96 h
[8] = Half life in dog; format: ADME, organism-based, Canis lupus familiaris; conditions: in vivo
Cytochrome P450 1A2 = target: T4, Cytochrome P450 1A2 (Homo sapiens, UniProt P05177); experiment: Inhibition of human CYP1A2; format: ADME
T4 sequence (P05177 whole entry): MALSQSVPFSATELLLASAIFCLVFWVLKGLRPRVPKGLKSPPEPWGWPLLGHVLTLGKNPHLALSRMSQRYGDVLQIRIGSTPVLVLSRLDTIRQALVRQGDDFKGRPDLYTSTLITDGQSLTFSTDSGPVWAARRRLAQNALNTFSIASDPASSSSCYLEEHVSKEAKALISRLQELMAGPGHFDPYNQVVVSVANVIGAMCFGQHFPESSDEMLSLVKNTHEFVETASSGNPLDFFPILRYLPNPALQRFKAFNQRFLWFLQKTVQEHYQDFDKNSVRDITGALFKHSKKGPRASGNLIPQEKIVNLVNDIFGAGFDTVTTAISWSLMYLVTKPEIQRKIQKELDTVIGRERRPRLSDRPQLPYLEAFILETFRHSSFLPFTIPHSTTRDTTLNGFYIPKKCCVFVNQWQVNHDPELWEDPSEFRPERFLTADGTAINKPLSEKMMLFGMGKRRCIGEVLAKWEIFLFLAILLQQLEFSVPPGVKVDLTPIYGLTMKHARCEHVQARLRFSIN

[9] = Volume of distribution at steady state in rat; format: ADME, organism-based; conditions: in vivo, read-out: Vdss
[10] = Volume of distribution at steady state in monkey; format: ADME, organism-based, Macaca mulatta; conditions: rhesus monkey, in vivo; read-out: Vdss
[11] = target: T2, P2X purinoceptor 7 (Homo sapiens); experiment: (§1) Antagonist activity at P2X7 receptor in human LPS-stimulated monocytes assessed as inhibition of ATP-induced IL1-beta release by ELISA in presence of human blood; format: functional, cell-based
P2X purinoceptor 7 [12] = target: T1, P2X purinoceptor 7; experiment: as §1; format: functional, cell-based
[13] = Oral bioavailability in rat at 5 mg/kg; format: ADME, organism-based; conditions: in vivo
[14] = Cmax in monkey; format: ADME, organism-based, Macaca mulatta; conditions: rhesus monkey, in vivo
P2X purinoceptor 7 [15] = target: T1, P2X purinoceptor 7; experiment: Antagonist activity at P2X7 receptor expressed in HEK293 cells assessed as inhibition of ATP-induced YOPRO-1 uptake; format: functional, cell-based
[16] = Half life in monkey; format: ADME, organism-based, Macaca mulatta; conditions: rhesus monkey, in vivo
[17] = Half life in rat; format: ADME, organism-based; conditions: in vivo
[18] = Cmax in dog; format: ADME, organism-based, Canis lupus familiaris; conditions: in vivo
Salmonella typhimurium = experiment: Mutagenic activity in Salmonella Typhimurium by Ames assay; format: toxicity, organism-based; conditions: salmonella enterica subsp. enterica serovar typhimurium
Cytochrome P450 3A4 = Cytochrome P450 3A4 (Homo sapiens, UniProt P08684); experiment: Inhibition of human CYP3A4; format: ADME
Chain of Cytochrome P450 3A4 (P08684 whole entry): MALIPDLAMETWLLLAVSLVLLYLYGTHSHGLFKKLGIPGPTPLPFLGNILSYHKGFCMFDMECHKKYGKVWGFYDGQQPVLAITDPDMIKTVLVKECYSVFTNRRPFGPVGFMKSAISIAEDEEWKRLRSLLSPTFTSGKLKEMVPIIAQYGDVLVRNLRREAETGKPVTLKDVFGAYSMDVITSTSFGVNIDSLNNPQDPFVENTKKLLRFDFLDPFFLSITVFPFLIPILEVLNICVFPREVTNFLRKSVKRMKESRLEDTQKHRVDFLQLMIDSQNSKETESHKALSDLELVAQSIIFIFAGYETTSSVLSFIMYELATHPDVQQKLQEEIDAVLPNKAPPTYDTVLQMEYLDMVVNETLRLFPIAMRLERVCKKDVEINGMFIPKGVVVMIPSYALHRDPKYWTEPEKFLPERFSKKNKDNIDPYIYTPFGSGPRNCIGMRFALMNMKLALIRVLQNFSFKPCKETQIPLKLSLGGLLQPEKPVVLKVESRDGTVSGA

[19] = Oral bioavailability in monkey; format: ADME, organism-based, Macaca mulatta; conditions: rhesus monkey, in vivo
[20] = target: Voltage-gated inwardly rectifying potassium channel KCNH2 (Homo sapiens, UniProt Q12809); experiment: Inhibition of human ERG at 1 uM
Chain of Voltage-gated inwardly rectifying potassium channel KCNH2 (Q12809 whole entry): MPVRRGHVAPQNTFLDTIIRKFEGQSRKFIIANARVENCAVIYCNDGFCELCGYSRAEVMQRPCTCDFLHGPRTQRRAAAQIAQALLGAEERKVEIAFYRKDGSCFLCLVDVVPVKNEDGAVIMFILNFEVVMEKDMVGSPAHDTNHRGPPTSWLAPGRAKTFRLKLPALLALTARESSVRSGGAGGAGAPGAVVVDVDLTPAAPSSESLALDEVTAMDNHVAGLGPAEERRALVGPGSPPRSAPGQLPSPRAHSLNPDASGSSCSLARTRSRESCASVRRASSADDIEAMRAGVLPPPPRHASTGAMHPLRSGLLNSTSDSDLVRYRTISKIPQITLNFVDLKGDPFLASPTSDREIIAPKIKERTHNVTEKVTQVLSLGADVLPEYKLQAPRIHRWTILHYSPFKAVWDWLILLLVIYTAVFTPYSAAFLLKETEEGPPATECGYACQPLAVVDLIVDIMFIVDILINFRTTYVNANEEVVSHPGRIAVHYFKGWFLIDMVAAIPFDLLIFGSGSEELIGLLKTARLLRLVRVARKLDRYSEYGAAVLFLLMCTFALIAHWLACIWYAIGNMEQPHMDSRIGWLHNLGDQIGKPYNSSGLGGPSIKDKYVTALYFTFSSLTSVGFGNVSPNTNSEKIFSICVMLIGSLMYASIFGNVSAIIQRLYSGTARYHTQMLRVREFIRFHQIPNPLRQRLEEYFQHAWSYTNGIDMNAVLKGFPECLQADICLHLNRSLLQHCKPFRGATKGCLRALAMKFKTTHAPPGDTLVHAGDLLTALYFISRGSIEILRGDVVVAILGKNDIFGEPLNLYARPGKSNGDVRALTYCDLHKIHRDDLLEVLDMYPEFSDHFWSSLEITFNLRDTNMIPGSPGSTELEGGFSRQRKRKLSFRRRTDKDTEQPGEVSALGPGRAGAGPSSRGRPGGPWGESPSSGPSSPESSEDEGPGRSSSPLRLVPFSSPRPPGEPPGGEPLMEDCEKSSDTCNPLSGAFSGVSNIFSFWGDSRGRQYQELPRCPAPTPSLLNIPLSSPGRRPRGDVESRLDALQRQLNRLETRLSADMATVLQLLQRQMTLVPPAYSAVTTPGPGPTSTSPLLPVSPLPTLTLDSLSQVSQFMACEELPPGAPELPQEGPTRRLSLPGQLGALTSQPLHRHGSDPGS

Cytochrome P450 2C9 = Cytochrome P450 2C9 (Homo sapiens, UniProt P11712); experiment: Inhibition of human CYP2C9; format: ADME
Chain of Cytochrome P450 2C9 (P11712 whole entry): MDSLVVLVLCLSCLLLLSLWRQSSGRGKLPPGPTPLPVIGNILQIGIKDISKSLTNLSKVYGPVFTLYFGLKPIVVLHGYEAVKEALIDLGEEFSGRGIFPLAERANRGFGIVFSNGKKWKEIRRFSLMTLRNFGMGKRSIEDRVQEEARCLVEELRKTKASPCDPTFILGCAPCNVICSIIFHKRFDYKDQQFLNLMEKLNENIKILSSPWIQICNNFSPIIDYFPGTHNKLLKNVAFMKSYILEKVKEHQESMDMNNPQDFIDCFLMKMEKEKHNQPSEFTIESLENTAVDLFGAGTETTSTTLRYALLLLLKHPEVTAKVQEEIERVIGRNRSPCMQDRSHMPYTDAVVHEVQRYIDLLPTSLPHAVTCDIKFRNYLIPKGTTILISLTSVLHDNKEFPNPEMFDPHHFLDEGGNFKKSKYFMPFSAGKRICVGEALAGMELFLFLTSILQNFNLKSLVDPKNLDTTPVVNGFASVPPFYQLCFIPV

[21] = Cmax in rat at 5 mg/kg, po; format: ADME, organism-based; parameters: dose 5 mg/kg, route oral; conditions: in vivo
[22] = Oral bioavailability in dog; format: ADME, organism-based, Canis lupus familiaris; conditions: in vivo

CCC(CC)CNC(=O)c1cc(-n2ncc(=O)[nH]c2=O)ccc1Cl
IC50 (P2X purinoceptor 7 [1]): 1100 nM

CCCCC(CC)CN(C)C(=O)c1cc(-n2ncc(=O)[nH]c2=O)ccc1Cl (stereo not given)
inhibition [2]: 0%

N#Cc1ccc(-n2ncc(=O)[nH]c2=O)cc1C(=O)NCC1(O)CCCCCC1
inhibition [3]: 0%

Cc1ccc(-n2ncc(=O)[nH]c2=O)cc1C(=O)NCC1(O)CCCCCC1
IC50 (P2X purinoceptor 7 [1]): 700 nM

COC[C@H](O)Cn1c(=O)cnn(-c2ccc(Cl)c(C(=O)NCC3(O)CCCCCC3)c2)c1=O [CE-224535]
fraction unbound [4]: 0.27
Vd [5]: 0.61 L/kg
inhibition [6]: Active
IC50 (Cytochrome P450 2D6): > 30000 nM
IC50 (Cytochrome P450 2C19): > 30000 nM
concentration at 2016 h [7]: 519 nM
Activity (Rattus norvegicus): Non-toxic
half-life [8]: 27.6 min
IC50 (Cytochrome P450 1A2): > 30000 nM
Vd [9]: 7.6 L/kg
Vd [10]: 0.68 L/kg
IC90 [11]: 4.7 nM
IC50 (P2X purinoceptor 7 [12]): 0.8 nM
bioavailability [13]: 2.6%
Cmax [14]: 550 ng/mL
IC50 (P2X purinoceptor 7 [15]): 4 nM
half-life [16]: 46.2 min
half-life [17]: 144 min
Cmax [18]: 3500 ng/mL
Activity (Salmonella typhimurium): Non-toxic
IC50 (P2X purinoceptor 7 [1]): 1.4 nM
IC50 (Cytochrome P450 3A4): > 30000 nM
bioavailability [19]: 22%
inhibition (INH) [20]: Not Active
IC50 (Cytochrome P450 2C9): > 30000 nM
Cmax [21]: 210 ng/mL
bioavailability [22]: 59%

Cn1c(=O)cnn(-c2ccc(Cl)c(C(=O)NCC3(O)CCCCCC3)c2)c1=O
IC50 (P2X purinoceptor 7 [1]): 42 nM

CCCCNC(=O)c1cc(-n2ncc(=O)[nH]c2=O)ccc1Cl
inhibition [2]: 0%

CCCCC(CC)CNC(=O)c1cc(-n2ncc(=O)[nH]c2=O)ccc1Cl (stereo not given)
IC50 (P2X purinoceptor 7 [15]): 1100 nM

CCCCCNC(=O)c1cc(-n2ncc(=O)[nH]c2=O)ccc1Cl
IC50 (P2X purinoceptor 7 [1]): 2800 nM

O=C(NCCc1ccncc1)c1cc(-n2ncc(=O)[nH]c2=O)ccc1Cl
inhibition [2]: 22%

O=C(NCCc1ccccc1)c1cc(-n2ncc(=O)[nH]c2=O)ccc1Cl
IC50 (P2X purinoceptor 7 [1]): 940 nM

O=C(NCC1(O)CCCCCC1)c1cc(-n2ncc(=O)[nH]c2=O)ccc1F
inhibition [3]: 20%

O=C(NCC1CCOCC1)c1cc(-n2ncc(=O)[nH]c2=O)ccc1Cl
IC50 (P2X purinoceptor 7 [1]): > 5000 nM

O=C(NCC1CCCC1)c1cc(-n2ncc(=O)[nH]c2=O)ccc1Cl
inhibition [2]: 0%
